This experiment has as its target benzodiazepine site of the GABAA receptor. Briefly: Ligand binding assay (3H-Ro15-1788 displacement, purified rat cortical membranes). The note with it: previously determined; used in the Cheng-Prusoff equation; read-out: Kd, binding dissociation constant of the radioligand.

A word on the Kd: it is the free concentration of one partner at which half of the binding sites on the other are occupied at equilibrium, for simple one-to-one binding. `CCOC(=O)c1ncn2c1CN(C)C(=O)c1cc(F)ccc1-2` [^3H-Ro15-1788]: the Kd is 1 nM.

The record behind these values is patent US20080167324A1, “Thiazolymethyl and Oxazolylmethyl Heteroaryl Derivatives” (priority 2005, published 2008).
